Entries after “also recorded” stand apart in the source; their conditions may differ.
Columns and labels:
[1] = system: Immature Sprague Dawley CD (SD) BR female rats; test: In vivo Rat Follicle Maturation Assay (ovulated oocytes after r-hCG); conditions: for ovulatable oocytes compared with high dose of FSH alone: 0.4 mg/kg combined with low dose of FSH; for effect on FSH-induced follicle maturation: in vivo, with FSH
[2] = system: Immature Sprague Dawley CD (SD) BR female rats; test: Histological count of secondary and antral follicles in rat ovaries; assay type: in vivo
PDE1 = conditions: cited from earlier work
PDE3 = conditions: cited from earlier work
PDE5 = PDE5 (Homo sapiens, UniProt O76074); conditions: cited from earlier work
[3] = test compound 1 mg/kg×4 injections s.c. in NP3S with Low Dose FSH
[4] = test compound 1 mg/kg×4 s.c. in NP3S with Low Dose FSH
[5] = test compound 5 mg/kg×4 injections s.c. in NP3S with Low Dose FSH
[6] = test compound 5 mg/kg×4 s.c. in NP3S with Low Dose FSH
[7] = test compound 5 mg/kg×4 s.c. in aqueous vehicle with Low Dose FSH
[8] = test compound 25 mg/kg×4 injections s.c. in NP3S with Low Dose FSH
[9] = test compound 25 mg/kg×4 s.c. in NP3S with Low Dose FSH

Compound: COc1ccc([C@]2(C#N)CC[C@@H](C(=O)O)CC2)cc1OC1CCCC1 [ARIFLO (Cilomilast), Cilomilast]
- Follicular growth activity with Low FSH? [1]: Inhibits follicular growth

Compound: O=C(Nc1c(Cl)cncc1Cl)c1ccc(OC(F)F)c(OCC2CC2)c1 [Roflumilast]
- ovulatable oocytes compared with high dose of FSH alone [1]: produces more ovulatable oocytes than even the high dose of FSH alone
- effect on FSH-induced follicle maturation [1]: increased FSH-induced follicle maturation

Compound: CCCc1nn(C)c2c(=O)[nH]c(-c3cc(S(=O)(=O)N4CCN(C)CC4)ccc3OCC)nc12 [Sildenafil, 5-[2-ethoxy-5-(4-methyl-1-piperazinylsulphonyl)phenyl]-1-methyl-3-n-propyl-1,6-dihydro-7H-pyrazolo[4,3-d]pyrimidin-7-one]
- number of ovulated oocytes per rat as compared to Low Dose FSH alone plus aqueous vehicle control ([1]; 1, 5 and 25 mg/kg×4 s.c. in aqueous vehicle with Low Dose FSH): dose-related increase
- average number of oocytes per rat [1, 3]: 3.5
- rats ovulated [1, 4]: 6 out of 8
- average number of oocytes per rat [1, 5]: 5.5
- rats ovulated [1, 6]: 5 out of 8
- average number of oocytes per rat [1, 7]: 20
- rats ovulated [1, 7]: 7 out of 8
- average number of oocytes per rat [1, 8]: 6.9
- rats ovulated [1, 9]: 7 out of 8
- Follicular growth activity with Low FSH? [1]: YES
- total number of antral follicles per rat (2 ovaries) ([2]; Low FSH + 75 mg/kg Sildenafil): 7.4
- total number of secondary follicles per rat (2 ovaries) ([2]; Low FSH + 75 mg/kg Sildenafil (25 mg/kg×3)): 84
- IC50 (PDE1): 260 nM

Compound: OCCN(CCO)c1nc(N2CCCCC2)c2nc(N(CCO)CCO)nc(N3CCCCC3)c2n1 [Dipyridamole]
- average number of oocytes per rat [1, 3]: 7.5
- rats ovulated [1, 4]: 7 out of 10
- average number of oocytes per rat [1, 5]: 6.8
- rats ovulated [1, 6]: 6 out of 10
- average number of oocytes per rat [1, 8]: 6.2
- rats ovulated [1, 9]: 10 out of 10
- Follicular growth activity with Low FSH? [1]: YES

Compound: 5′-Methyl-2′(biphenylylmethyl)-3′-(phenylmethyl)spiro[cyclopentane-1,7′(8′h)-[3H]imidazo[2,1-b]purin]-4(5′h)-one [Compound no. 33]
- average number of oocytes per rat [1, 8]: 27
- Follicular growth activity with Low FSH? [1]: YES
- IC50 (PDE1): 0.6 nM
- IC50 (PDE5): 200 nM

Compound: CCCOc1cc([C@]2(C)CNC(=O)O2)ccc1OC [Mesopram]
- follicular maturation, lower dose series ([1]; 0.032, 0.016, 0.08 mg/kg together with a low dose of FSH, significance at 0.08 mg/kg): dose dependent increase in follicular maturation
- follicular maturation versus low FSH alone ([1]; 0.08, 0.4, and 2 mg/kg/day together with a low dose of FSH): significant enhancement of follicular maturation
- follicular maturation at higher doses ([1]; higher doses of the 0.08-2 mg/kg/day series, with low dose FSH): decrease in follicular maturation

Compound: (6aR,9aS)-2-(Biphenylylmethyl)-5,6a,7,8,9,9a-hexahydro-5-methyl-3(phenylmethyl)cyclopent[4,5]imidazo-[2,1-b]purin-4(3H)-one [Compound no. 31]
- average number of oocytes per rat [1, 8]: 18
- Follicular growth activity with Low FSH? [1]: YES
- IC50 (PDE1): 0.07 nM
- IC50 (PDE5): 305 nM

Compound: COc1ccc([C@H](Cc2ccncc2)c2ccccc2)cc1OC1CCCC1 [CDP840]
- Follicular growth activity with Low FSH? [1]: Inhibits follicular growth

Compound: CN1CC(=O)N2[C@H](c3ccc4c(c3)OCO4)c3[nH]c4ccccc4c3C[C@@H]2C1=O [Tadalafil, (6R,12aR)-2,3,6,7,12,12a-hexahydro-2-methyl-6-(-3,4-methylenedioxyphenyl)pyrazino[2′,1′:6,1]pyrido[3,4-b]indole-1,4-dione]
- average number of oocytes per rat ([1]; test compound 25 mg/kg×4 s.c. in water with Low Dose FSH): 16
- Follicular growth activity with Low FSH? [1]: YES
- IC50 (PDE1): > 30000 nM

Compound: CCCOc1ccccc1-c1nc2nn[nH]c2c(=O)[nH]1 [Zaprinast]
- average number of oocytes per rat [1, 3]: 3.25
- rats ovulated [1, 4]: 6 out of 10
- average number of oocytes per rat [1, 5]: 6.4
- rats ovulated [1, 6]: 9 out of 10
- average number of oocytes per rat [1, 8]: 9.5
- rats ovulated [1, 9]: 10 out of 10
- Follicular growth activity with Low FSH? [1]: YES
- IC50 (PDE1): 9400 nM
- IC50 (PDE3): > 100000 nM

Compound: COc1ccc(C(=O)Nc2c(Cl)cncc2Cl)cc1OC1CCCC1 [Piclamilast]
- ovulatable oocytes compared with high dose of FSH alone [1]: produces more ovulatable oocytes than even the high dose of FSH alone
- follicle maturation, compound alone ([1]; 2 mg/kg, without co-administration of FSH): did induce follicle maturation; also recorded: increased the hCG ovulatable oocytes
- follicle maturation, compound alone ([1]; 0.08 and 0.4 mg/kg, absence of exogenous FSH): not sufficient to induce follicle maturation
- follicle maturation (number of ovulatable oocytes) ([1]; in the presence of low doses of FSH): very marked induction in follicle maturation
- effect on FSH-induced follicle maturation [1]: increased FSH-induced follicle maturation
